Measurements reported in publication PMC7840129, “Structural basis for heme-dependent NCoR binding to the transcriptional repressor REV-ERBβ” (Science Advances, 2021).

Key:
[1] = system: REV-ERBβ LBD; test: DSSO chemical cross-linking, SDS-PAGE; assay type: binding, human; conditions: LBD-only samples, 600 μM DSSO, 25°C, 45 min
Method: To further support this stoichiometry, we performed chemical cross-linking analysis of apo or heme-bound LBD ± RID using DSSO (disuccinimidyl sulfoxide), a cross-linker that cross-links lysine residues as well as serine, threonine, and tyrosine residues (fig. S9, A and B).
(§1) Apo or heme-bound REV-ERBβ LBD and NCoR RID protein samples were cross-linked in Hepes gel filtration buffer [25 mM Hepes (pH 7.5) at room temperature, 50 mM NaCl, and 0.5 mM TCEP]. Non–cross-linked negative controls were generated using the same procedure without the addition of DSSO (Thermo Fisher Scientific). Samples included 4 μM apo LBD with or without 2 μM RID and 4 μM heme-bound LBD with or without 2 μM RID; complexes were preincubated 1 hour on ice. Reactions were initiated by spiking DSSO in DMSO at a final concentration of 600 μM in 50-μl solutions. The final molar ratio of cross-linker:protein was 100:1. The reactions were incubated at 25°C for 45 min before being quenched by the addition of tris (pH 8.0) to a final concentration of 50 mM. Each cross-link reaction was done in triplicate, and the reaction replicates were pooled after quenching. Samples (10 μl) were loaded for SDS-PAGE analysis with Coomassie staining to confirm the presence of cross-linked protein. […]

[2] = system: REV-ERBβ LBD / NCoR RID; test: Chemical cross-linking mass spectrometry (XL-MS); assay type: binding; conditions: LBD:RID complexes ± heme; DSSO; significant at Padj < 0.05
Method: as §1, with “protein. The remaining cross-linked and non–cross-linked samples were then acetone-precipitated at −20°C overnight, and the protein was pelleted by centrifugation at 16,000 relative centrifugal force (rcf) for 5 min at 4°C. After decanting, the pellets were dried for 15 min at room temperature before being resuspended in 12.5 μl of resuspension buffer [50 mM ammonium bicarbonate and 8 M urea (pH 8.0)].” for “protein.”

[3] = system: REV-ERB LBD interaction with NCoR ID motif peptides; test: fluorescence-based peptide binding assays; conditions: fig. S2A; authors attribute it to heme quenching artifact
[4] = heme fluorescence quenching; conditions: fig. S2C
[5] = system: REV-ERB LBD interaction with NCoR ID motif peptides; conditions: REV-ERBs; cited from earlier work
Source text: The iron-centered porphyrin heme has been identified as the endogenous REV-ERB ligand ([7], [8]). […] Structural data would help establish that heme directly produces a REV-ERB LBD conformation that enhances NCoR binding. However, published biochemical and structural studies contradict cell-based evidence ([7]–[11]).

C=CC1=C(C)c2cc3[n-]c(cc4[n-]c(cc5nc(cc1n2)C(C)=C5C=C)c(C)c4CCC(=O)O)c(CCC(=O)O)c3C.[Fe+2] [heme]
LBD dimer band by cross-linking SDS-PAGE, effect of heme [1]: weak dimer band in LBD-only samples that was unchanged by heme | effect of heme on cross-links [2]: reduced LBD-LBD and LBD-RID cross-links, particularly for residues in the AF-2 surface | effect of heme on ID peptide interaction in fluorescence-based assays [3]: dose-dependently reduces REV-ERB LBD interaction with peptides derived from NCoR ID motifs | heme quenching of fluorophores [4]: quenches fluorophores across a broad range of emissions | displacement of NCoR ID peptides in fluorescence-based biochemical assays [5]: dose-dependently displace NCoR interaction domain (ID) peptides from the REV-ERBs
